Publication PMC3043358 (The Prostate, 2010)

Target: DNMT1 (Homo sapiens, UniProt P26358)
Type: biochemical

DNMT1, sequence (P26358 whole entry): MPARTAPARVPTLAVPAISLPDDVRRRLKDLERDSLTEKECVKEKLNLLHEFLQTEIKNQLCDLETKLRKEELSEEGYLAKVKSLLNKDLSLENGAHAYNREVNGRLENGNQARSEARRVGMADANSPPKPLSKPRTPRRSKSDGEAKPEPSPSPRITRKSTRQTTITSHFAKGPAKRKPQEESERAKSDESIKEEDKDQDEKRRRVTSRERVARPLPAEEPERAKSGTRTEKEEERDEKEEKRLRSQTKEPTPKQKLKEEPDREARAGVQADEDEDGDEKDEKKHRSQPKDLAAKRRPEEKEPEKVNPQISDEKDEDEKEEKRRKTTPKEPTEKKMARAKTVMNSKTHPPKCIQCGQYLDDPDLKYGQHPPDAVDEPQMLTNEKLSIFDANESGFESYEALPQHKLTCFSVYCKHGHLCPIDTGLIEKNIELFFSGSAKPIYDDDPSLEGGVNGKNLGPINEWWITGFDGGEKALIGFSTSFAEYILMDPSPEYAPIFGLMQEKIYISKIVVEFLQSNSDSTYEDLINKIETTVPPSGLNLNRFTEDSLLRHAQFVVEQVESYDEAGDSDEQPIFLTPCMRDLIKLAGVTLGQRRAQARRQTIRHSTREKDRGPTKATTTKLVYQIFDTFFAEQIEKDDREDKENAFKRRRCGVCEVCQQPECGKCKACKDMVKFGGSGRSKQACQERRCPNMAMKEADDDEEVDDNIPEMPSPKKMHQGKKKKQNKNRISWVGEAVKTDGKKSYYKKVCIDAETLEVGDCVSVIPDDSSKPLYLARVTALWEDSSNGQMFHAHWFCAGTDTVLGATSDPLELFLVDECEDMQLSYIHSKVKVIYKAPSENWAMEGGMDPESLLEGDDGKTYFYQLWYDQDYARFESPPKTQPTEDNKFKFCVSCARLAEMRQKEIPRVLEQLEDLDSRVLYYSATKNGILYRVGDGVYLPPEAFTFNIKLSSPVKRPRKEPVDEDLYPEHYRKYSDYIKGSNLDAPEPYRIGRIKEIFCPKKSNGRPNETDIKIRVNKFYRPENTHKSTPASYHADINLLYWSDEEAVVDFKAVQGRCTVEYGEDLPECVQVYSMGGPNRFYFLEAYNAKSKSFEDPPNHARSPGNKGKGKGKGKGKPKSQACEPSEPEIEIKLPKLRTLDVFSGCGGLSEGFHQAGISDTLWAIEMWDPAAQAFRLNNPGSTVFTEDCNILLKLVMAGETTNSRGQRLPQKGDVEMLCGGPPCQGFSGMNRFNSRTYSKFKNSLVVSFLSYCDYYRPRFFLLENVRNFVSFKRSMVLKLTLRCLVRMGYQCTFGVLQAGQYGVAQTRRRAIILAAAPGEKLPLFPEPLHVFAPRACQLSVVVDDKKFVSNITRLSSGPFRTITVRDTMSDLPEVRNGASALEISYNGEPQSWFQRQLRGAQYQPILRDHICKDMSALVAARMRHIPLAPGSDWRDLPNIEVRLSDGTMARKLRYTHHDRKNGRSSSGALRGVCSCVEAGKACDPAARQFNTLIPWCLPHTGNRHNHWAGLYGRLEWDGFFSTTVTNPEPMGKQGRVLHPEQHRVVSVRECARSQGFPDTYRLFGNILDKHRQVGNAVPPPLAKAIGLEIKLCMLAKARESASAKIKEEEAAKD

in vitro methyltransferase assay, tritium incorporation from 3H-AdoMet into hemi: 95% reduction of activity at 200
SMILES: CCN(CC)C(=S)SSC(=S)N(CC)CC [DSF, Disulfiram]
